The values below come from patent US20100152259A1 (Merck & Co Inc., priority 2006, published 2010).

The structures appear in SMILES notation.

In the assay the test system is rabbit aortic slices. Briefly: vessel relaxation assay (tissue-based, rabbit aortic slices). Type of assay: cell-based. As to conditions: Oryctolagus cuniculus.
Broadly, the EC50 is the concentration needed to bring the measured effect to its halfway point. High values mean lower potency in that assay, low ones higher potency in that assay. `CCCCc1nc(Cl)c(C(=O)OC(C)OC(=O)OCCCC[C@H](CO[N+](=O)[O-])O[N+](=O)[O-])n1Cc1ccc(-c2ccccc2-c2nn[nH]n2)cc1` (single isomer, unassigned) [Compound 2]: a half-maximal effect (EC50) was put at 1 µM.
To `CCCCc1nc(Cl)c(C(=O)OCCOCCO[N+](=O)[O-])n1Cc1ccc(-c2ccccc2-c2nn[nH]n2)cc1` [Compound 1, reference compound] belongs 6 µM; to `CCCCc1nc(Cl)c(C(=O)OC(C)OC(=O)OCCOCC(CO[N+](=O)[O-])O[N+](=O)[O-])n1Cc1ccc(-c2ccccc2-c2nnn[nH]2)cc1` (stereo not drawn) [Compound 3], 5 µM; to `CCCCc1nc(Cl)c(C(=O)OC(C)OC(=O)OCCC(C)(C)CC(CO[N+](=O)[O-])O[N+](=O)[O-])n1Cc1ccc(-c2ccccc2-c2nnn[nH]2)cc1` (stereo not drawn) [Example 4, 1-[({[3,3-dimethyl-5,6-bis(nitrooxy)hexyl]oxy}carbonyl)oxy]ethyl 2-butyl-4-chloro-1-{[2′-(1H-tetrazol-5-yl)biphenyl-4-yl]methyl}-1H-imidazole-5-carboxylate], 1.1 µM.
For `CCOc1nc2cccc(C(=O)OC(C)(C)OC(=O)OCCCCC(CO[N+](=O)[O-])O[N+](=O)[O-])c2n1Cc1ccc(-c2ccccc2-c2nnn[nH]2)cc1` (stereo not drawn) [Example 8, 1-[({[5,6-bis(nitrooxy)hexyl]oxy}carbonyl)oxy]-1-methylethyl 2-ethoxy-1-{[2′-(1H-tetrazol-5-yl)biphenyl-4-yl]methyl}-1H-benzimidazole-7-carboxylate] the value was 0.37 µM; for `CCOc1nc2cccc(C(=O)OC(C)(C)OC(=O)OCCCC[C@H](CO[N+](=O)[O-])O[N+](=O)[O-])c2n1Cc1ccc(-c2ccccc2-c2nnn[nH]2)cc1` [Example 9, 1-[({[(5R)-5,6-bis(nitrooxy)hexyl]oxy}carbonyl)oxy]-1-methylethyl 2-ethoxy-1-{[2′-(1H-tetrazol-5-yl)biphenyl-4-yl]methy}-1H-benzimidazole-7-carboxylate], 0.99 µM; for `CCOc1nc2cccc(C(=O)OC(C)(C)OC(=O)OCCOCC(CO[N+](=O)[O-])O[N+](=O)[O-])c2n1Cc1ccc(-c2ccccc2-c2nnn[nH]2)cc1` (stereo not drawn) [Example 10], 2.38 µM.
For `CCOc1nc2cccc(C(=O)OC(C)(C)OC(=O)OCCOC[C@H](CO[N+](=O)[O-])O[N+](=O)[O-])c2n1Cc1ccc(-c2ccccc2-c2nnn[nH]2)cc1` [Example 11, 1-{[(2-{[(2R)-2,3-bis(nitrooxy)propyl]oxy}ethoxy)carbonyl]oxy}-1-methylethyl 2-ethoxy-1-{[2′-(1H-tetrazol-5-yl)biphenyl-4-yl]methyl}-1H-benzimidazole-7-carboxylate] the value was 2.3 µM; for `CCOc1nc2cccc(C(=O)OC(C)(C)OC(=O)OCC[C@@H](CO[N+](=O)[O-])O[N+](=O)[O-])c2n1Cc1ccc(-c2ccccc2-c2nnn[nH]2)cc1` [Example 12, 1-[({[(3S)-3,4-bis(nitrooxy)butyl]oxy}carbonyl)oxy]-1-methylethyl 2-ethoxy-1-{[2′-(1H-tetrazol-5-yl)biphenyl-4-yl]methyl}-1H-benzimidazole-7-carboxylate], 3.73 µM.
